# Measurements as given in patent US20260055088A1, “HETEROCYCLIC COMPOUND, METHOD FOR PREPARING SAME, AND PHARMACEUTICAL USE THEREOF” (Jiangsu Hengrui Pharmaceuticals Co., Ltd., priority 2022, published 2026).
# Counter-ions that a name gives are not always drawn.
# Biological target: Nav1.8 ion channel stably expressed on HEK293 cells (Homo sapiens (Human), UniProt Q9Y5Y9)
# Assay: Inhibitory activity against Nav1.8, manual patch clamp
# Type: cell-based
# Settings: resting protocol (-80 mV to 10 mV), 1 μM TTX, read-out: IC50 for the inhibition of Nav1.8 channel activity
# Source text: The objective of the experiment was to investigate the effects of the compounds on the Nav1.8 ion channel in ex vivo experiments. The Nav1.8 ion channel is stably expressed on HEK293 cells. After the Nav1.8 current stabilized, the effects of the compounds on the Nav1.8 ion channel were obtained by comparing the magnitudes of the Nav1.8 currents before and after the compounds were applied.
# • 1) A patch clamp amplifier: patch clamp PC-505B (WARNER instruments)/MultiClamp 700A (Axon instrument) • 2) A digital-to-analog converter: Digidata 1440A (Axon CNS)/Digidata 1550A (Axon instruments) • 3) A micromanipulator: MP-225 (SUTTER instrument) • 4) An inverted microscope: TL4 (Olympus) • 5) Glass micropipette puller: PC-10 (NARISHIGE) • 6) Microelectrode glass capillaries: B12024F (Wuhan VitalSense Scientific Instruments Co., Ltd.) • 7) Dimethyl sulfoxide (DMSO) D2650 (Sigma-Aldrich) • 8) TTX AF3014 (Affix Scientific)
# The compounds for preparing the intracellular and extracellular fluids were purchased from Sigma (St. Louis, MO) except for the NaOH and KOH for the acid-base titrations. The extracellular fluid (mM) was: NaCl, 137; KCl, 4; CaCl2, 1.8; MgCl2, 1; HEPES, 10; glucose, 10; pH 7.4 (NaOH titration). The intracellular fluid (mM) was: aspartic acid, 140; MgCl2, 2; EGTA, 11; HEPES, 10; pH 7.2 (CsOH titration). All test and control compound solutions contained 1 μM TTX.
# The test compounds were stored at a concentration of 9 mM in dimethyl sulfoxide (DMSO). On the testing day, the compounds were further dissolved in the extracellular fluid to prepare the required concentrations.
# 1) After the compounds were prepared into solutions with specified concentrations, the compound solutions were sequentially added to channels in ascending order according to their concentrations, and each channel was labeled.
# 2) A cell was transferred to the perfusion chamber. Positive pressure was applied inside the electrode, and the electrode tip was brought into contact with the cell. The three-way valve of the suction device was switched to the state where all three ways were open, and negative pressure was then applied to the electrode, allowing a high-resistance seal to form between the electrode and the cell. The application of negative pressure was continued to rupture the cell membrane, leading to the formation of a current pathway.
# 3) After the cell membrane rupture current stabilized, perfusion was performed with different concentrations in sequence. If the current remained stable for at least one minute, perfusion was performed with the next concentration.
# 4) The perfusion chamber was cleaned. The perfusion chamber was rinsed with the compound solutions in descending order according to their concentrations, with each concentration applied for 20 s. Finally, the perfusion chamber was rinsed with the extracellular fluid for 1 min.
# The cell was clamped at −80 mV and then depolarized to 10 mV using a square wave lasting for 10 ms to obtain a Nav1.8 current. This procedure was repeated once every 5 seconds. The maximum current induced by the square wave was detected. After the current stabilized, perfusion was performed with the test compounds. After the reaction stabilized, the strength of the blocking was calculated.
# The data were stored on a computer system and analyzed. Data acquisition and analysis were performed using pCLAMP 10 (Molecular Devices, Union City, CA), and the results were reviewed by a manager. “Current stabilized” means that the changes in current over time were within a limited range. The magnitude of the current after stabilization was used to calculate the effect of the compound at this […].
# The inhibitory activity of the compounds of the present disclosure against Nav1.8 was determined through the above assay.
row,SMILES,IC50 [nM]
1,"C/N=C(\N)c1cc(NC(=O)[C@@H]2O[C@@](C)(C(F)(F)F)[C@@H](C)[C@H]2c2ccc(F)c(F)c2OC)ccn1 [Example 21, (2R,3S,4S,5R)-3-(3,4-Difluoro-2-methoxyphenyl)-4,5-dimethyl-N-(2-((Z)—N′-methylcarbamimidoyl)pyridin-4-yl)-5-(trifluoromethyl)tetrahydrofuran-2-carboxamide]",1.35
2,"CCNNC(=O)c1cc(NC(=O)[C@@H]2O[C@@](C)(C(F)(F)F)[C@@H](C)[C@H]2c2ccc(F)c(F)c2OC)ccn1 [Example 22, (2R,3S,4S,5R)-3-(3,4-Difluoro-2-methoxyphenyl)-N-(2-(2-ethylhydrazine-1-carbonyl)pyridin-4-yl)-4,5-dimethyl-5-(trifluoromethyl)tetrahydrofuran-2-carboxamide]",0.68
3,"COc1c([C@H]2[C@H](C(=O)Nc3ccnc(C(=O)NNC4CC4)c3)O[C@@](C)(C(F)(F)F)[C@H]2C)ccc(F)c1F [Example 23, (2R,3S,4S,5R)—N-(2-(2-Cyclopropylhydrazine-1-carbonyl)pyridin-4-yl)-3-(3,4-difluoro-2-methoxyphenyl)-4,5-dimethyl-5-(trifluoromethyl)tetrahydrofuran-2-carboxamide]",2.85
4,"COc1c([C@H]2[C@H](C(=O)Nc3ccnc(C(=O)NN(C)C)c3)O[C@@](C)(C(F)(F)F)[C@H]2C)ccc(F)c1F [Example 24, (2R,3S,4S,5R)-3-(3,4-Difluoro-2-methoxyphenyl)-N-(2-(2,2-dimethylhydrazine-1-carbonyl)pyridin-4-yl)-4,5-dimethyl-5-(trifluoromethyl)tetrahydrofuran-2-carboxamide]",2.12
5,"COc1c([C@H]2[C@H](C(=O)Nc3ccnc(C(=O)C(N)=O)c3)O[C@@](C)(C(F)(F)F)[C@H]2C)ccc(F)c1F [Example 26, (2R,3S,4S,5R)—N-(2-(2-Amino-2-oxoacetyl)pyridin-4-yl)-3-(3,4-difluoro-2-methoxyphenyl)-4,5-dimethyl-5-(trifluoromethyl)tetrahydrofuran-2-carboxamide trifluoroacetate]",1.09
6,"COc1c([C@H]2[C@H](C(=O)Nc3ccc(F)c(C(=N)N)c3)O[C@@](C)(C(F)(F)F)[C@H]2C)ccc(F)c1F [Example 27, (2R,3S,4S,5R)—N-(3-Carbamimidoyl-4-fluorophenyl)-3-(3,4-difluoro-2-methoxyphenyl)-4,5-dimethyl-5-(trifluoromethyl)tetrahydrofuran-2-carboxamide]",< 0.16
7,"[2H]C([2H])([2H])O/N=C(\N)c1cc(NC(=O)[C@@H]2O[C@@](C)(C(F)(F)F)[C@@H](C)[C@H]2c2ccc(F)c(F)c2OC)ccn1 [Example 37, (2R,3S,4S,5R)-3-(3,4-Difluoro-2-methoxyphenyl)-N-(2-((Z)—(N′-methoxy-d3)carbamimidoyl)pyridin-4-yl)-4,5-dimethyl-5-(trifluoromethyl)tetrahydrofuran-2-carboxamide]",1.86
8,"COc1c([C@H]2[C@H](C(=O)Nc3ccnc(OCC(O)C4(O)CC4)c3)O[C@@](C)(C(F)(F)F)[C@H]2C)ccc(F)c1F (stereo partly drawn) [Example 39, (2R,3S,4S,5R)-3-(3,4-Difluoro-2-methoxyphenyl)-N-(2-(2-hydroxy-2-(1-hydroxycyclopropyl)ethoxy)pyridin-4-yl)-4,5-dimethyl-5-(trifluoromethyl)tetrahydrofuran-2-carboxamide]",2.68
9,"CO/N=C(\N)c1cc(NC(=O)[C@@H]2O[C@@](C)(C(F)(F)F)[C@@H](C)[C@H]2c2ccc(F)c(F)c2OC)cc[n+]1[O-] [Example 44, 4-((2R,3S,4S,5R)-3-(3,4-Difluoro-2-methoxyphenyl)-4,5-dimethyl-5-(trifluoromethyl)tetrahydrofuran-2-carboxamido)-2-((Z)—N′-methoxycarbamimidoyl)pyridine 1-oxide]",0.53
